Assay results reported in patent US20030236301A1, “Liposomal delivery of vitamin E based compounds” (priority 2001, published 2003).

How the values were obtained:
[1] = test system: 66 c1.4 GFP murine mammary tumor cells; assay: Tumor growth of 66 c1.4-GFP mammary tumor cells in Balb/c mice (tumor volume); settings: for inhibition of tumor growth: Example 18: liposomal formulation by aerosol
Description: 66 c1.4-GFP cells were harvested by trypsinization, centrifuged, resuspended in McCoy's media, containing no supplements at a density of 2×10^5/100 μl. Mice were injected in the inguinal area at a point equal distance between the 4th and 5th nipples on the right side using a 23 gauge needle.
50 mice were assigned (10 per group) to aerosol treatment, aerosol control, oral treatment, oral control, or to the no treatment group so that the average tumor volume for all groups were closely matched. […] Tumors were measured using calipers every other day, and volumes were calculated using the formula: volume (mm^3) [width (mm)^2×length (mm)]/2. Body weights were determined weekly.
Balb/c mice were injected with 200,000 66 c1.4 GFP cells subcutaneous in the mammary fat pad area between the 4th and 5th nipple on the right side of the body.
Mice are injected with 200,000 66 c1.4 GFP murine mammary tumor cells as described on day 0. Treatments are initiated on day 9 when tumors reached 1-3 mm in size. Aerosol treatments of α-TEA liposomes (5 mg α-TEA/mouse) are administered daily for 16 days (FIG. 8). Data represent the mean+/−Standard Error (SE), N=10 mice for control and treatment groups.
Balb/c mice were injected s.c. with 2×10^5 66 c1.4-GFP cells in the inguinal area between the 4th and 5th nipple on the right side of the body. When tumors reached 2×2-4×4 mm (9 days after tumor injection), mice were placed into 5 groups ((Group 1: untreated control, Group 2: liposome/aerosol control, Group 3: liposomal α-TEA aerosol treatment, Group 4: peanut oil/gavage control, Group 5: α-TEA in peanut oil/gavage treatment) of 10 mice/group) such that the mean tumor volume of each group was closely matched. Daily treatments were initiated on day 9 after tumor injection.
Balb/c mice were injected with 200,000 66 c1.4 GFP cells subcutaneous in the mammary fat pad area between the 4th and 5th nipple on the right side of the body. […] Animals were treated with α-TEA in liposome, vitamin E succinate in liposome, or control liposome alone via aerosol, 7 days per week, for 21 days. Animals were given 75 mg compound via nebulization per day such that each animal received 36 μg compound per day.
The size of the tumors, 9-21 days after injection of 200,000 66 c1.4 GFP cells between the 4th and 5th nipple on the right side of each mouse, is determined. Treatments are initiated on day 9 after tumor inoculation. Each group consists of n=10+/−SE. Gavage Treatment=Treatments of 5 mg of α-TEA in ethanol and peanut oil (0.1 ml volume) are administered daily starting on day 9 after tumor inoculation and continuing through day 21. Gavage Control=Mice received peanut oil and ethanol alone (0.1 ml volume)/daily, starting on day 9 after tumor inoculation and continuing through day 21. Data (tumor size) are depicted as the mean+/−standard error for days 9, 11, 13, 15, 17, 19, and 21.
Balb/c mice were injected with 200,000 66 c1.4 GFP cells subcutaneous in the mammary fat pad area between the 4th and 5th nipple on the right side of the body. […] Animals were treated with α-TEA in liposome vitamin E succinate in liposome, or control liposome alone via oral gavage, 2 times per day, 7 days per week, for 21 days. Animals were given a total of 6 mg compound per day.

66 c1.4-GFP cells = assay: Apoptosis by morphological evaluation of DAPI-stained nuclei; settings: three days
Description: Briefly, 1×10^5 cells/well in 12-well plates were cultured overnight to permit attachment. […] After treatment, floating cells plus scraped-released adherent cells were pelleted by centrifugation for 5 min at 350×g, washed one time with phosphate buffered saline (PBS; 137 mM NaCl, 2.7 mM KCL, 10.4 mM Na2HPO4, 10.5 mM KH2PO4; pH 7.2), and stained with 2 μg/ml of 4′,6-diamidino-2-phenylindole dihydrochloride (DAPI, Boehringer Mannheim, Indianapolis, Ind.) in 100% methanol for 15 min at 37° C.
Cells were viewed at 400× magnification with a Zeiss ICM 405 fluorescent microscope using a 487701 filter. […] Data are reported as percentage of apoptotic cells per cell population, i.e., number apoptotic cells/total number of cells counted. Three different microscopic fields were examined and 200 cells counted at each location for a minimum of 600 cells counted per slide. Apoptotic data are presented as mean±S.D. for three independently conducted experiments.

[2] = test system: 66 c1.4 GFP murine mammary tumor cells; assay: Lung and lymph node metastases of 66 c1.4-GFP tumors in Balb/c mice; type: in vivo; settings: Example 31: liposomal formulation via gavage, 6 mg per day
Text: Metastastic lesions in the five lung lobes were counted visually at time of sacrifice. Fluorescent green micro-metastatic cancer cell colonies in the left lung lobe and lymph nodes were counted using a Nikon fluorescence microscope (TE-200) with a 20×objective (200× magnification) and Image-Pro Plus (version 4.1; Media Cybernetics, Silver Spring, Md.) software associated with the microscope. Fluorescent lesions were separated into three size grouping: <5 μm, 5-10 μm and >10 μm.
At sacrifice, lungs were taken, examined visually for metastatic lesions and frozen for analyses of micrometastases by fluorescence.
Use of a Nikon fluorescence microscope and Image-Pro Plus software permitted measurement of green fluorescing micrometastases into three size groupings of <5 μm, 5-10 μm and >10 μm.
At sacrifice, the left lung lobe of each mouse of flash frozen and saves for detection of GFP expressing micrometatstic lesions via fluorescent microscopy.

MDA-MB-435 GFP FL cells = assay: Tumor growth of MDA-MB-435 GFP FL breast cancer cells in nude mice; type: in vivo, Nu/Nu athymic nude mice; settings: Example 35: day 35
Description: Animals were given a total of 8 mg compound per day. […] Alpha-TEA liposome gavage reduced tumor growth by 68, 75, 78, 79 and 79% on days 27, 29, 31, 33, and 35, respectively (FIG. 15).
Animals were […] 3 ppm methylselenocysteine (MSC) in water, α-TEA in liposome via aerosol, or gavaged 10 mg/kg b.w. trans-resveratrol (t-RES) in first 1:1. EtOH:physiological saline, and starting at day 24, 6.5% EtOH and 93.5% Neobee oil. A combination group was treated with each of the above three compounds, and a control group was treated with aerosolized liposome. 100 μl water, and 50 μl of the t-Res solvent. Animals were treated seven days a week, for 35+ days.

[3] = 75 mg in nebulizer/day, day 15 of treatment
[4] = 75 mg in nebulizer/day, day 17 of treatment
[5] = Example 18: liposomal preparation delivered by aerosol

## Cc1cc(O)cc2c1O[C@](C)(CCC[C@H](C)CCC[C@H](C)CCCC(C)C)CC2 [RRR-delta tocopherol, RRR-delta-tocopherol]
[1]; [3]
  inhibition of tumor growth: 25%
[1]; [4]
  inhibition of tumor growth: 40%

## Cc1c(C)c2c(c(C)c1OC(=O)CCC(=O)O)CC[C@@](C)(CCC[C@H](C)CCC[C@H](C)CCCC(C)C)O2 [vitamin E succinate, RRR-α-tocopheryl succinate, reference compound]
66 c1.4-GFP cells; 2.5 μg/ml
  apoptosis (percentage of apoptotic cells): 3%
66 c1.4-GFP cells; 5 μg/ml
  apoptosis (percentage of apoptotic cells): 5%
66 c1.4-GFP cells; 10 μg/ml
  nuclear morphology of DAPI stained cells: exhibited condensation and fragmented DNA
[2]
  effect on lung metastasis: no effect on lung metastasis
  effect on lymph node micrometastatic lesions (FIG. 14B): not effective
[1]; Example 26: liposome aerosol, 75 mg in nebulizer/day, day 17
  reduction of tumor growth: 76%
[1]; Example 30: liposome gavage, 6 mg per day, 21 days
  effect on tumor growth: did not reduce tumor growth

## Oc1ccc(/C=C/c2cc(O)cc(O)c2)cc1 [t-RES, trans-resveratrol, reference compound]
MDA-MB-435 GFP FL cells
  increase of tumor volume from the control: 61.2%

## CC(C)=CCC/C(C)=C/CC/C(C)=C/CC[C@]1(C)CCc2c(C)c(O)c(C)c(C)c2O1 [RRR-α-tocotrienol]
[1]; [3]
  inhibition of tumor growth: 34%
[1]; [4]
  inhibition of tumor growth: 27%

## CC(=O)Oc1c(C)c(C)c2c(c1C)CCC(C)(CCCC(C)CCCC(C)CCCC(C)C)O2 (racemic) [dl-α tocopherol acetate, dl-α-tocopherol acetate]
[1]; [3]
  inhibition of tumor growth: 29%
[1]; [4]
  inhibition of tumor growth: 57%

## Cc1c(C)c2c(c(C)c1O)CC[C@@](C)(CCC[C@H](C)CCC[C@H](C)CCCC(C)C)O2 [RRR-α tocopherol, RRR-α-tocopherol]
[1]; [5]
  effect on tumor growth: enhanced tumor growth
  tumor volume compared with control mice: not significantly greater

## Cc1c(O)cc2c(c1C)O[C@](C)(CCC[C@H](C)CCC[C@H](C)CCCC(C)C)CC2 [RRR-γ tocopherol, RRR-γ-tocopherol]
[1]; [5]
  effect on tumor growth: enhanced tumor growth
  tumor volume compared with control mice: significantly higher
